The assay deals with T1, GR (Homo sapiens, UniProt P04150).
T1 construct: expressed in transfected cells; host or cells: CHO-K1 (CHO-K1-GR-MMTV-Luc reporter cells)
T1 sequence (P04150 1-777): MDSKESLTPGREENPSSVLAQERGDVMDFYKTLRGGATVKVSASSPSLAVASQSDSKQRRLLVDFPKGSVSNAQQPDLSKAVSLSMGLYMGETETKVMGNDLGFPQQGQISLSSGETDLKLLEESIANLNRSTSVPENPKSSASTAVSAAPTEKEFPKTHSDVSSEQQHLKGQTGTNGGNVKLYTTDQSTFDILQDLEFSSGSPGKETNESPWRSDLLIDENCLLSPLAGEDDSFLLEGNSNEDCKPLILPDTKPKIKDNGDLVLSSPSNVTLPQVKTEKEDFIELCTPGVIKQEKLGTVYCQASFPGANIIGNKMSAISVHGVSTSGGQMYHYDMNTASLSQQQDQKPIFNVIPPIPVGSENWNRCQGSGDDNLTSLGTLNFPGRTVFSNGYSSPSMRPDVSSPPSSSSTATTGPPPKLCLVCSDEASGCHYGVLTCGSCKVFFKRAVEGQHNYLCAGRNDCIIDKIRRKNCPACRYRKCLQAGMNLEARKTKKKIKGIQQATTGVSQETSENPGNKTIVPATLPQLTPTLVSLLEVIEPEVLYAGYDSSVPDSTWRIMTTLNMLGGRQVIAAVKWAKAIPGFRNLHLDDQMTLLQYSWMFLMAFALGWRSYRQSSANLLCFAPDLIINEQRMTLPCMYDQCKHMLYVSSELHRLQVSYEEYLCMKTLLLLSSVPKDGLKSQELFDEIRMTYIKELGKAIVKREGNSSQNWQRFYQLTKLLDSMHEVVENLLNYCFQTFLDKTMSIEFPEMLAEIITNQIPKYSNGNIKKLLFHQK
Description: In Vitro GR Luciferase Reporter Assay (antagonist assay). It is filed as cell-based. The following applies: CHO-K1-GR-MMTV-Luc reporter cells, 10 nM Dexamethasone, 18-24 hours. The method, then: Example A: In Vitro GR Luciferase Reporter Assay
Cell Line: CHO-K1-GR-MMTV-Luc reporter cells
Culture Media: DMEM (with phenol red)+10% FBS
Assay Media: DMEM (without phenol red)+10% CSS
Culture CHO-K1-GR-MMTV-Luc reporter cells in T175 flasks in Culture Media at conditions less than 90% confluence.
Using Bravo (Agilent) liquid handler:
200× DMSO 1:3 serial dilutions of control and test compounds in 96-well non-sterile V bottom plate in DMSO, 12 points for each compound were prepared.
Prepared 5× compound serial dilutions: Add 97.5 μL/well of Assay Media into 96-well non-sterile V bottom plate then added 2.5 ul of 200× concentration of compounds and mix well.
Seeded cells for Antagonist Assay: 5200 CHO-K1-GR-MMTV-Luc reporter cells were seeded in Greiner #781080 flat clear bottom 384-well white TC plate in 20 ul of Assay Media containing 12.5 nM Dexamethasone (final concentration=10 nM).
Added compounds: 5 μl of 5× compounds were added to appropriate wells and followed with a quick spin (1000 rpm, 10 sec) to bring media and cells to the bottom of plate. The plates were covered with SealMate film to avoid evaporation and placed in 37° C. incubator for approximately 18-24 hours.
Read plates: Equilibrate appropriate amount of Promega OneGlo luciferase reagent to room temperature. Remove the plates from incubator and add 25 uL of OneGlo reagent/well by Bravo and read the plates on Tecan Spark plate reader within 15 minutes.
The ability of the compounds disclosed herein to inhibit GR activity was quantified and the respective IC50 value was determined. Table 1 provides the cellular IC50 values of compounds disclosed herein.

Here are results for 37 compounds from patent publication US20220079924A1, “GLUCOCORTICOID RECEPTOR MODULATORS” (ORIC Pharmaceuticals, Inc., priority 2018, published 2022).

Usually IC50 stands for the concentration that gives 50% inhibition. Higher therefore signals a need for much substance.

The structures appear in SMILES notation. Bounds are passed on as bounds.

`O=C(c1cc(F)ccn1)[C@]12Cc3cnn(-c4ccc(F)cc4)c3C=C1CC[C@H](N(C1CC(F)(F)C1)S(=O)(=O)c1ccc(F)cc1)C2` [Example 23] returned an IC50 of at most 100 nM.
As for `O=C(c1cc(Cl)ccn1)[C@]12Cc3cnn(-c4ccc(F)cc4)c3C=C1CC[C@H](N(C1CC(F)(F)C1)S(=O)(=O)c1ccc(F)cc1)C2` [Example 24], the figure is at most 100 nM; as for `O=C(c1cc(F)ccn1)[C@]12Cc3cnn(-c4ccc(F)cc4)c3C=C1CC[C@H](N(CC(F)F)S(=O)(=O)c1ccc(F)cc1)C2` [Example 25], at most 100 nM; as for `Cn1cc(S(=O)(=O)C[C@H]2CCC3=Cc4c(cnn4-c4ccc(F)cc4)C[C@]3(C(=O)c3cc(Cl)ccn3)C2)cn1` [Example 26], at most 100 nM.
As for `O=C(c1cc(F)ccn1)[C@]12Cc3cnn(-c4ccc(F)nc4)c3C=C1CC[C@H](N(C1CC1)S(=O)(=O)c1ccc(F)cc1)C2` [Example 27], the figure is at most 100 nM; as for `O=C(c1cc(Cl)ccn1)[C@]12Cc3cnn(-c4ccc(F)cc4)c3C=C1CC[C@H](N(CC(F)F)S(=O)(=O)c1ccc(F)cc1)C2` [Example 28], at most 100 nM; as for `Cn1cc(S(=O)(=O)N(CCF)[C@H]2CCC3=Cc4c(cnn4-c4ccc(F)cc4)C[C@]3(C(=O)c3cc(Cl)ccn3)C2)cn1` [Example 29], at most 100 nM.
For `Cn1cnc(S(=O)(=O)N(CC(F)F)[C@H]2CCC3=Cc4c(cnn4-c4ccc(F)cc4)C[C@]3(C(=O)c3cc(F)ccn3)C2)n1` [Example 30], the IC50 is at most 100 nM.
The compound `Cn1cnc(S(=O)(=O)N(CC(F)F)[C@H]2CCC3=Cc4c(cnn4-c4ccc(F)cc4)C[C@]3(C(=O)c3cc(Cl)ccn3)C2)n1` [Example 31] showed an IC50 of at most 100 nM.
As to `Cn1cc(S(=O)(=O)N(CCF)[C@H]2CCC3=Cc4c(cnn4-c4ccc(F)cc4)C[C@]3(C(=O)c3cc(C(F)(F)F)ccn3)C2)cn1` [Example 32], the IC50 was at most 100 nM.
As for `Cn1cnc(S(=O)(=O)N([C@H]2CCOC2)[C@H]2CCC3=Cc4c(cnn4-c4ccc(F)cc4)C[C@]3(C(=O)c3cc(C(F)(F)F)ccn3)C2)n1` [Example 33], the figure is at most 100 nM; as for `O=C(c1cc(F)ccn1)[C@]12Cc3cnn(-c4ccc(F)cc4)c3C=C1CC[C@H](N(CC(F)(F)F)S(=O)(=O)c1ccc(F)cc1)C2` [Example 34], at most 100 nM; as for `C[C@H]([C@H]1CCC2=Cc3c(cnn3-c3ccc(F)cc3)C[C@]2(C(=O)c2ccc(C(F)(F)F)cn2)C1)S(=O)(=O)c1cnn(C)c1` [Example 35], at most 100 nM.
`C[C@@H]([C@H]1CCC2=Cc3c(cnn3-c3ccc(F)cc3)C[C@]2(C(=O)c2ccc(C(F)(F)F)cn2)C1)S(=O)(=O)c1cnn(C)c1` [Example 36] came in with an IC50 of at most 100 nM.
`Cn1cc(S(=O)(=O)N(CC(F)F)[C@H]2CCC3=Cc4c(cnn4-c4ccc(F)cc4)C[C@]3(C(=O)c3cc(C(F)(F)F)ccn3)C2)cn1` [Example 37]: the IC50 was at most 100 nM.
In the case of `CC(C)N([C@H]1CCC2=Cc3c(cnn3-c3ccc(F)nc3)C[C@]2(C(=O)c2ncc(C(F)(F)F)s2)C1)S(=O)(=O)c1ncn(C)n1` [Example 38] it was at most 100 nM.
As for `Cn1cc(S(=O)(=O)N(C2CC2)[C@H]2CCC3=Cc4c(cnn4-c4ccnc(F)c4)C[C@]3(C(=O)c3cc(C(F)(F)F)ccn3)C2)cn1` [Example 39], the figure is at most 100 nM; as for `Cn1cnc(S(=O)(=O)N(C2CC2)[C@H]2CCC3=Cc4c(cnn4-c4ccnc(F)c4)C[C@]3(C(=O)c3cc(C(F)(F)F)ccn3)C2)n1` [Example 40], at most 100 nM; as for `Cn1cnc(S(=O)(=O)N(CC(F)(F)F)[C@H]2CCC3=Cc4c(cnn4-c4ccc(F)cc4)C[C@]3(C(=O)c3cc(Cl)ccn3)C2)n1` [Example 41], at most 100 nM.
As for `Cn1cnc(S(=O)(=O)N([C@H]2CCC3=Cc4c(cnn4-c4ccc(F)cc4)C[C@]3(C(=O)c3cc(C(F)(F)F)ccn3)C2)[C@H]2C[C@](O)(C(F)(F)F)C2)n1` [Example 42], the figure is 100 to 1000 nM; as for `Cn1cnc(S(=O)(=O)N([C@H]2CCC3=Cc4c(cnn4-c4ccc(F)cc4)C[C@]3(C(=O)c3cc(F)ccn3)C2)[C@H]2C[C@](O)(C(F)(F)F)C2)n1` [Example 43], 100 to 1000 nM; as for `Cn1cnc(S(=O)(=O)N([C@H]2CCC3=Cc4c(cnn4-c4ccc(F)cc4)C[C@]3(C(=O)c3cc(Cl)ccn3)C2)[C@H]2C[C@](O)(C(F)(F)F)C2)n1` [Example 44], at most 100 nM.
In turn, `Cn1cnc(S(=O)(=O)N([C@H]2CCC3=Cc4c(cnn4-c4ccc(F)cc4)C[C@]3(C(=O)c3cc(Cl)ccn3)C2)[C@H]2C[C@@](O)(C(F)(F)F)C2)n1` [Example 45] yielded an IC50 of at most 100 nM.
As for `Cn1cnc(S(=O)(=O)N(C2CC2)[C@H]2CCC3=Cc4c(cnn4-c4ccc(F)cc4)C[C@]3(C(=O)c3ncc(C(C)(C)C)s3)C2)n1` [Example 46], the figure is at most 100 nM; as for `Cn1ccc(S(=O)(=O)N(C2CC2)[C@H]2CCC3=Cc4c(cnn4-c4ccc(F)cc4)C[C@]3(C(=O)c3cc(C(F)(F)F)ccn3)C2)c1` [Example 47], at most 100 nM.
As for `Cn1cnc(S(=O)(=O)N(C2CC2)[C@H]2CCC3=Cc4c(cnn4-c4ccc(F)nc4)C[C@]3(C(=O)c3cc(F)ccn3)C2)n1` [Example 48], the figure is at most 100 nM.
In the case of `CCN([C@H]1CCC2=Cc3c(cnn3-c3ccc(F)nc3)C[C@]2(C(=O)c2cc(C(F)(F)F)ccn2)C1)S(=O)(=O)c1ncn(C)n1` [Example 49] it was at most 100 nM; in that of `CCN([C@H]1CCC2=Cc3c(cnn3-c3ccc(F)nc3)C[C@]2(C(=O)c2cc(Cl)ccn2)C1)S(=O)(=O)c1ncn(C)n1` [Example 50], at most 100 nM; in that of `CC(C)N([C@H]1CCC2=Cc3c(cnn3-c3ccc(F)nc3)C[C@]2(C(=O)c2cc(C(F)(F)F)ccn2)C1)S(=O)(=O)c1ncn(C)n1` [Example 51], at most 100 nM.
Take `CC(C)N([C@H]1CCC2=Cc3c(cnn3-c3ccc(F)nc3)C[C@]2(C(=O)c2cc(Cl)ccn2)C1)S(=O)(=O)c1ncn(C)n1` [Example 52]: the IC50 was at most 100 nM.
In the case of `O=C(c1cc(Cl)ccn1)[C@]12Cc3cnn(-c4ccc(F)cc4)c3C=C1CC[C@H](N(CC(F)(F)F)S(=O)(=O)c1ccc(F)cc1)C2` [Example 53] it was at most 100 nM.
In the case of `Cn1cc(S(=O)(=O)N(Cc2ncco2)[C@H]2CCC3=Cc4c(cnn4-c4ccc(F)cc4)C[C@]3(C(=O)c3cc(C(F)(F)F)ccn3)C2)cn1` [Example 54] it was at most 100 nM.
As for `Cn1cnc(S(=O)(=O)N(C2CC2)[C@H]2CCC3=Cc4c(cnn4-c4ccc(F)cn4)C[C@]3(C(=O)c3cc(C(F)(F)F)ccn3)C2)n1` [Example 55], the IC50 is at most 100 nM.
As for `C[C@H]([C@H]1CCC2=Cc3c(cnn3-c3ccc(F)cc3)C[C@]2(C(=O)c2ncc(C(F)(F)F)s2)C1)S(=O)(=O)c1ncn(C)n1` [Example 56], the IC50 was at most 100 nM.
As for `C[C@@H]([C@H]1CCC2=Cc3c(cnn3-c3ccc(F)cc3)C[C@]2(C(=O)c2ncc(C(F)(F)F)s2)C1)S(=O)(=O)c1ncn(C)n1` [Example 57], the figure is at most 100 nM; as for `Cn1ccc(S(=O)(=O)N(C2CC2)[C@H]2CCC3=Cc4c(cnn4-c4ccc(F)cc4)C[C@]3(C(=O)c3cc(F)ccn3)C2)c1` [Example 58], at most 100 nM.
The compound `C[C@H]([C@H]1CCC2=Cc3c(cnn3-c3ccc(F)cc3)C[C@]2(C(=O)c2ncc(C(C)(C)C)s2)C1)S(=O)(=O)c1cnn(C)c1` [Example 59] registered an IC50 of at most 100 nM.
